Test results from patent US20020037560A1, “Bicyclic terpenes and synthesis thereof” (priority 2000, published 2002).

Molecular target: T1, Tobacco 5-epi-aristolochene synthase (TEAS) (Nicotiana tabacum, UniProt Q40577)
T1 construct: made in house
T1 sequence (Q40577 1-548): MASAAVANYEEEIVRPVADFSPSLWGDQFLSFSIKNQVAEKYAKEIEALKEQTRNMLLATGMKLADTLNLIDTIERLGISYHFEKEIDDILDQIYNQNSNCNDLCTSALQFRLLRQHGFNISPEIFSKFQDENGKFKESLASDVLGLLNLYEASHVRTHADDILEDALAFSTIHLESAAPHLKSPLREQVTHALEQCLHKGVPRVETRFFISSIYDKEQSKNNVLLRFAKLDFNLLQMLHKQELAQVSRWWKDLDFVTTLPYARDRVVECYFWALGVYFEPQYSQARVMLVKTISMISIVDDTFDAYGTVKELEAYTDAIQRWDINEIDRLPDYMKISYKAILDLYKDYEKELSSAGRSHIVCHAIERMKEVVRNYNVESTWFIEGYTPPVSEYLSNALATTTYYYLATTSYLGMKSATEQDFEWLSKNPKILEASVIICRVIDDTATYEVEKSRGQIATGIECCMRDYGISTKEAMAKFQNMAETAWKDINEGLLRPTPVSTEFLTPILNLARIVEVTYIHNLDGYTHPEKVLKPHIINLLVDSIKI
Experiment: TEAS activity assay (3H-FPP to 3H-5-epi-aristolochene, hexane partitioning)
Assay type: biochemical
Description: Kinetic Characterization of the Interaction of AGPP with TEAS. The assay for TEAS activity is based upon partitioning of the hydrophobic product (^3H-5-epi-aristolochene) into an organic solvent while the hydrophilic substrate (^3H-FPP) remains in the aqueous phase (i.e. Vögeli & Chappell, 1988; Back et al., 1994; Mathis et al. 1997). The Ki describing AGPP interaction with TEAS was characterized by measuring initial velocities for a matrix of reactions. Reactions (50 μl) containing 200 mM Tris-Cl, pH 7.5, 40 mM MgCl2, 50-250 nM TEAS, and 0.2 μCi ^3H-FPP, carrier-free or in combination with unlabeled FPP to give final substrate concentrations of 0.2-10 μM. Fixed concentrations of AGPP ranged from 0-150 μM. Reactions were initiated by the addition of enzyme and were incubated for 5 min. at 37° C. Reactions were quenched by vortexing against 150 μl hexane. After a brief centrifugation, 100 μl of the hexane phase was treated with approximately 20 mg of silica powder to remove any contaminating FPP or farnesol, the latter of which may be generated by contaminating phosphatase activity. Following vortexing and a brief centrifugation to pellet the silica, 50 μl of the hexane phase was mixed with 4 ml of liquid scintillation cocktail and analyzed for radioactivity (disintegrations per minute). Determination of reaction rate was based on percent conversion to product, the value for which was obtained by comparing the radioactivity in the hexane extract to that in an untreated aliquot of the assay mixture. […] Data were analyzed using Enzyme Kinetics V 1.5 (Trinity Software).
Kinetic Characterization of the Interaction of AGPP with TEAS. As a synthetic analog of FPP, AGPP (2) may potentially bind within the TEAS active site and thereby inhibit the sesquiterpene synthase activity of this enzyme. The nature of the potential interaction between TEAS and AGPP was characterized through a series of TEAS activity assays in which the ability of TEAS to produce ^3H-5-epi-aristolochene from ^3H-FPP was monitored in the presence of unlabeled AGPP. […]

| mode of inhibition of TEAS-catalyzed cyclization of FPP (Lineweaver-Burk plots, FIG. 1) (intersecting Lineweaver-Burk plots) | Ki (recombinant TEAS, 3H-FPP substrate 0.2-10 μM, AGPP 0-150 μM, 5 min at 37° C., read-out: Ki for the inhibition of TEAS activity) [µM] | Km (at 37° C., read-out: KM, TEAS utilization of FPP as a substrate) [µM] | SMILES |
| --- | --- | --- | --- |
| competitive inhibitor | 5.9 ± 1.8 | – | C/C(=C\COP(=O)(O)OP(=O)(O)O)CC/C=C(\C)CNc1ccccc1 [AGPP, 8-anilino-geranyl pyrophosphate] |
| – | – | 5.4 | CC(C)=CCC/C(C)=C/CC/C(C)=C/COP(=O)(O)OP(=O)(O)O [FPP] |
